Laboratory results reported in ChEMBL document CHEMBL5126518, “Quercetin derivatives: Drug design, development, and biological activities, a review” (Eur J Med Chem, 2022).
Values after ≈ are worked out from the molar mass of the structure shown.

Assays:
Staphylococcus aureus [1] = experiment: Antibacterial activity against Staphylococcus aureus ATCC 6538 assessed as cell growth inhibition incubated for 18 hrs by agar overlay method; type: functional
Escherichia coli [2] = experiment: Antibacterial activity against Escherichia coli ATCC 25922 assessed as cell growth inhibition incubated for 18 hrs by agar overlay method; type: functional
Bacillus cereus = experiment: Antibacterial activity against Bacillus cereus NAS 596 assessed as cell growth inhibition incubated for 18 hrs by agar overlay method; type: functional
Bacillus subtilis = experiment: Antibacterial activity against Bacillus subtilis ATCC 6633 assessed as cell growth inhibition incubated for 18 hrs by agar overlay method; type: functional
Enterobacter cloacae = experiment: Antibacterial activity against Enterobacter cloacae assessed as cell growth inhibition incubated for 18 hrs by agar overlay method; type: functional
Heyndrickxia coagulans = experiment: Antibacterial activity against Bacillus coagulans assessed as cell growth inhibition incubated for 18 hrs by agar overlay method; type: functional
Proteus mirabilis = experiment: Antibacterial activity against Proteus mirabilis assessed as cell growth inhibition incubated for 18 hrs by agar overlay method; type: functional
Klebsiella pneumoniae = experiment: Antibacterial activity against Klebsiella pneumoniae ATCC 13883 assessed as cell growth inhibition incubated for 18 hrs by agar overlay method; type: functional
[3] = molecular target: UDP-galactopyranose mutase (Mycobacterium tuberculosis, UniProt P9WIQ1); experiment: Binding affinity to Mycobacterium tuberculosis UGM assessed as dissociation constant by fluorescence polarization assay
Sequence of UDP-galactopyranose mutase (P9WIQ1 whole entry): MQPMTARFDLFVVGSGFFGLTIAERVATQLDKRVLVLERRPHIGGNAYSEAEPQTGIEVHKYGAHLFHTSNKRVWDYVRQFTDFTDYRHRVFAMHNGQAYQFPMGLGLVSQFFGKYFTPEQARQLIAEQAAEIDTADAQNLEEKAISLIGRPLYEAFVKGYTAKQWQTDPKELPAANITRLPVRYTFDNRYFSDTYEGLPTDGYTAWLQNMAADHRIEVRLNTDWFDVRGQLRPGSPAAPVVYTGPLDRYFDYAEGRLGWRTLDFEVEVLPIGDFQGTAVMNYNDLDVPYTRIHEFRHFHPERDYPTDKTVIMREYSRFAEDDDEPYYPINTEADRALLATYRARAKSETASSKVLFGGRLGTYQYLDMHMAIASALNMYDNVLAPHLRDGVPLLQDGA

[4] = molecular target: UDP-galactopyranose mutase (Mycobacterium tuberculosis) (UniProt P9WIQ1); experiment: Inhibition of Mycobacterium tuberculosis UGM at 20 uM by HPLC inhibition assay relative to control
Sequence of UDP-galactopyranose mutase (Mycobacterium tuberculosis) (P9WIQ1 whole entry, looked up): as the sequence (P9WIQ1 whole entry) above

[5] = Antioxidant activity assessed as DPPH radical scavenging activity after 30 mins under dark condition; type: functional
[6] = Competitive inhibition of xanthine oxidase (unknown origin) at 0.05 uM using xanthine as substrate preincubated with substrate for 1 min followed by compound addition by double beam spectrophotometer analysis relative to control
Escherichia coli [7] = experiment: Antibacterial activity against Escherichia coli ATCC 25922 assessed as cell growth inhibition by agar dilution method; type: functional
[8] = tested on: Staphylococcus gallinarum; experiment: Antibacterial activity against Staphylococcus gallinarum ATCC 9184 assessed as cell growth inhibition by agar dilution method; type: functional
Listeria monocytogenes = experiment: Antibacterial activity against Listeria monocytogenes ATCC 15313 assessed as cell growth inhibition by agar dilution method; type: functional
Staphylococcus aureus [9] = experiment: Antibacterial activity against Staphylococcus aureus ATCC 12600 assessed as cell growth inhibition by agar dilution method; type: functional
[10] = Inhibition of Escherichia coli topoisomerase 2 supercoiling activity by gel electrophoresis
[11] = Inhibition of Escherichia coli topoisomerase 4 decatenation activity by gel electrophoresis
MCF7 [12] = experiment: Antiproliferative activity against human MCF7 assessed as reduction in cell viability incubated for 48 hrs by MTT assay; type: functional
[13] = molecular target: Type-1 angiotensin II receptor (Homo sapiens, UniProt P30556); experiment: Inhibition of human AT1R expressed in HEK293 cells by non-linear regression analysis; type: cell-based
Sequence of Type-1 angiotensin II receptor (P30556 whole entry): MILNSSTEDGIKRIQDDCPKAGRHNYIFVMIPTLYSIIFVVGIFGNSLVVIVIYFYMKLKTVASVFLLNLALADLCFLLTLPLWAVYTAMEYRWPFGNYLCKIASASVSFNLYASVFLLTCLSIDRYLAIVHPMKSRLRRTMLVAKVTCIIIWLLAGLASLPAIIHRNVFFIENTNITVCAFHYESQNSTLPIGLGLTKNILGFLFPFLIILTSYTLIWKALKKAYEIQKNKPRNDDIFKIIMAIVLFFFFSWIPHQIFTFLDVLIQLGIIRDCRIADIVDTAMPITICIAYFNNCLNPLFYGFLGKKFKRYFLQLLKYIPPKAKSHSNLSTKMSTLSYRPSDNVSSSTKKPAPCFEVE

LN-229 = experiment: Antiproliferative activity against human LN-229 cells assessed as reduction in cell viability incubated for 48 hrs by SRB assay; type: functional
U-87 MG = experiment: Antiproliferative activity against human U87 cells assessed as reduction in cell viability incubated for 48 hrs by SRB assay; type: functional, U-87MG ATCC
[14] = Metal chelating activity assessed as Zn2+-compound complex formation by measuring binding energy
Candida albicans [15] = experiment: Antifungal activity against Candida albicans 10/15 assessed as fungal growth inhibition measured after 24 hrs by microdilution assay; type: functional
[16] = Antioxidant activity assessed as ABTS radical scavenging activity at 15 wt% incubated for 6 mins in presence of Si and PCL50 by UV spectrophotometer analysis relative to control; type: functional
[17] = Non-competitive inhibition of xanthine oxidase (unknown origin) at 0.4 uM using xanthine as substrate preincubated with substrate for 1 min followed by compound addition by double beam spectrophotometer analysis relative to control
[18] = Antioxidant activity assessed as ABTS radical scavenging activity at 10 wt% incubated for 6 mins in presence of Si and PCL50 by UV spectrophotometer analysis relative to control; type: functional
MCF7 [19] = experiment: Induction of apoptosis in human MCF7 cells assessed as early apoptotic cells at 50 uM measured after 12 hrs by annexin V-FITC/propidium iodide staining based flow cytometry relative to control; type: functional
J774.A1 = experiment: Inhibition of LPS-induced NO production in mouse J774.A1 cells pre-incubated with compound for 1 hr followed by LPS stimulation for 24 hrs by ELISA assay; type: functional, cell-based
[20] = molecular target: Urease subunit alpha/Urease subunit beta (Helicobacter pylori (strain ATCC 700392 / 26695) (Campylobacterpylori), UniProt P69996); experiment: Inhibition of Helicobacter pylori urease assessed as measuring ammonia production incubated for 1.5 hr by indophenol method; type: protein-complex assay
Sequence of Urease subunit alpha/Urease subunit beta (P69996 whole entry): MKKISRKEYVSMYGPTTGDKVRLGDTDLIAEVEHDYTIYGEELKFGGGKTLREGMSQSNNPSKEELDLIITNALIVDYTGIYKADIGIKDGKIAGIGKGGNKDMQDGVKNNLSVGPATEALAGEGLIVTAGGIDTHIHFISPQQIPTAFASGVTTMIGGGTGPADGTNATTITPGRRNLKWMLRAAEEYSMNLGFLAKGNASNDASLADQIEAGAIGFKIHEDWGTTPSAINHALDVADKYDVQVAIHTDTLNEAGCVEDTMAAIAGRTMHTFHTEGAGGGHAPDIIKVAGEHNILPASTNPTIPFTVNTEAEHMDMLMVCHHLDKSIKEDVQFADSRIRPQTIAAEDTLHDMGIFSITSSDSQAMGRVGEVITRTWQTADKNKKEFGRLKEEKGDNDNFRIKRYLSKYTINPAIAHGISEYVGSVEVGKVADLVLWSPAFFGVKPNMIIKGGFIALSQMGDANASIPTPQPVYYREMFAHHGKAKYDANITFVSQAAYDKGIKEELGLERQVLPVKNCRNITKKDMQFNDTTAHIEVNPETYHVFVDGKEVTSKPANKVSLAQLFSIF
Sequence of Urease subunit alpha/Urease subunit beta (P14916 whole entry, further chain): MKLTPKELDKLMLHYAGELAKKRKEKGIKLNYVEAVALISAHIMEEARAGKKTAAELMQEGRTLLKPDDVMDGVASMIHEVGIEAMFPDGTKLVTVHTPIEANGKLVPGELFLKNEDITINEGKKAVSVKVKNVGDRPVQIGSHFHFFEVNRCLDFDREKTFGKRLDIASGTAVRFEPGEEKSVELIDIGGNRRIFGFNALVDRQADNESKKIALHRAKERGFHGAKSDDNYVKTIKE

Candida albicans [21] = experiment: Antifungal activity against Candida albicans 13/15 assessed as fungal growth inhibition measured after 24 hrs by microdilution assay; type: functional
[22] = Antioxidant activity assessed as ABTS radical scavenging activity at 5 wt% incubated for 6 mins in presence of Si and PCL50 by UV spectrophotometer analysis relative to control; type: functional
[23] = Metal chelating activity assessed as compound-Cu2+ complex formation by measuring binding energy
[24] = Antioxidant activity assessed as DPPH radical scavenging activity up to 2 mM relative to control; type: functional
Candida albicans [25] = experiment: Antifungal activity against Candida albicans 475/15 assessed as fungal growth inhibition measured after 24 hrs by microdilution assay; type: functional
Candida albicans [26] = experiment: Antifungal activity against Candida albicans 527/14 assessed as fungal growth inhibition measured after 24 hrs by microdilution assay; type: functional
[27] = Metal chelating activity assessed as compound-Fe2+ complex formation by measuring binding energy
[28] = Competitive inhibition of xanthine oxidase (unknown origin) at 0.4 uM using xanthine as substrate preincubated with substrate for 1 min followed by compound addition by double beam spectrophotometer analysis relative to control
HCT-116 [29] = experiment: Antiproliferative activity against human HCT-116 cells assessed as cell growth inhibition by Z2 coulter counter based analysis; type: functional
HCT-116 [30] = experiment: Anticancer activity against human HCT-116 cells xenografted in mouse assessed as fold decrease in tumor growth measured after 3 weeks by digital caliper method; type: functional
Mus musculus = species: Mus musculus; experiment: Anticancer activity against ApcMin harboring mouse model assessed as fold increase in p53 expression measured after 16 weeks by […]; type: functional, Neoplasm
MDA-MB-231 [31] = experiment: Antiproliferative activity against human MDA-MB-231 cells assessed as cell growth inhibition measured after 48 hrs by MTT assay; type: functional, cell-based; conditions: MDA-MB-231, 48 h
MDA-MB-231 [32] = experiment: Antiproliferative activity against human MDA-MB-231 cells assessed as cell growth inhibition measured after 48 hrs by MTT assay relative to control; type: functional; parameters: scale not given: the % may be the effect or the level left
MDA-MB-231 [33] = experiment: Antiproliferative activity against human MDA-MB-231 cells assessed as cell growth inhibition measured after 72 hrs by MTT assay; type: functional, cell-based; conditions: MDA-MB-231, 72 h
[34] = Selectivity ratio of GI50 for cytotoxicity against human DU-145 cells to GI50 for cytotoxicity against human PC-3 cells by MTT assay; type: functional
PC-3 = experiment: Cytotoxicity against human PC-3 cells assessed as cell growth inhibition measured after 48 hrs by MTT assay; type: functional
[35] = molecular target: Bcl-2-like protein 1 (Homo sapiens) (UniProt Q07817); experiment: Binding affinity to recombinant human Bcl-xL assessed as change in enthalpy by MM-PBSA method
Sequence of Bcl-2-like protein 1 (Homo sapiens) (Q07817 whole entry): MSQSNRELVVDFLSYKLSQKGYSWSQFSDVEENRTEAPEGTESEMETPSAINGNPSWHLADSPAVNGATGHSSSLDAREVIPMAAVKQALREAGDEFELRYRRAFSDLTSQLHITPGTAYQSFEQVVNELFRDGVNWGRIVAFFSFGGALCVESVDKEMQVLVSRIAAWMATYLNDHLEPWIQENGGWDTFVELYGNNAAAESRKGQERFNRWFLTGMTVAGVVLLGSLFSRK

O=c1c(O)c(-c2ccccc2)oc2cc(O)cc(O)c12 [GALANGIN]
MIC (Staphylococcus aureus [1]): 0.25 µg/mL (≈ 0.925 µM) | MIC (Escherichia coli [2]): 0.25 µg/mL (≈ 0.925 µM) | MIC (Bacillus cereus): 0.25 µg/mL (≈ 0.925 µM) | MIC (Bacillus subtilis): 0.25 µg/mL (≈ 0.925 µM) | MIC (Enterobacter cloacae): 0.25 µg/mL (≈ 0.925 µM) | MIC (Heyndrickxia coagulans): 0.25 µg/mL (≈ 0.925 µM) | MIC (Proteus mirabilis): 0.25 µg/mL (≈ 0.925 µM) | MIC (Klebsiella pneumoniae): 0.25 µg/mL (≈ 0.925 µM)

O=c1c(O)c(-c2ccc(O)c(O)c2)oc2c(CN3CCCCC3)c(O)cc(O)c12
Kd [3]: > 2000 µM | inhibition [4]: 23.2%

COc1cc(OC)c2/c(=N/c3ccccc3)c(OC)c(-c3ccc(OC)c(OC)c3)oc2c1
IC50 [5]: 490 µM

O=c1c(O)c(-c2ccc(O)c(O)c2)oc2c(CN3CCCC3)c(O)cc(O)c12
Kd [3]: > 2000 µM | inhibition [4]: 47.8%

COc1cc(OC)c2/c(=N/c3cc(OC)c(OC)c(OC)c3)c(OC)c(-c3ccc(OC)c(OC)c3)oc2c1
IC50 [5]: 220 µM

O=c1oc2c(O)ccc(-c3oc4cc(O)cc(O)c4c(=O)c3O)c2s1
inhibition [6]: 50%

CC(=O)OC[C@H]1OC(OC(C)=O)[C@H](NCc2c(O)cc(O)c3c(=O)cc(-c4ccc(O)c(O)c4)oc23)[C@@H](OC(C)=O)[C@@H]1OC(C)=O (stereo partly drawn)
MIC (Escherichia coli [7]): 2 µg/mL (≈ 3.1 µM) | MIC [8]: 0.05 µg/mL (≈ 0.0775 µM) | MIC (Listeria monocytogenes): 0.5 µg/mL (≈ 0.775 µM) | MIC (Staphylococcus aureus [9]): 1 µg/mL (≈ 1.55 µM) | IC50 [10]: 0.25 µg/mL (≈ 0.387 µM) | IC50 [11]: 0.25 µg/mL (≈ 0.387 µM)

COc1cc(-c2oc3cc(O)cc(O)c3c(=O)c2O[C@@H]2O[C@H](C(=O)[O-])[C@@H](O)[C@H](O)[C@H]2O)ccc1O.[Na+]
Activity (MCF7 [12]): 49.8%

CCCCc1nc(Cl)c(COC(=O)CCC(=O)Oc2ccc(-c3oc4cc(O)cc(O)c4c(=O)c3O)cc2O)n1Cc1ccc(-c2ccccc2-c2nnn[nH]2)cc1
IC50 [13]: 0.14 µM

COc1cc(OC)c2c(=S)c(OC)c(-c3ccc(OC)c(OC)c3)oc2c1
IC50 [5]: 360 µM

CCCCc1nc(Cl)c(COC(=O)CCC(=O)Oc2cc(-c3oc4cc(O)cc(O)c4c(=O)c3O)ccc2O)n1Cc1ccc(-c2ccccc2-c2nnn[nH]2)cc1
IC50 [13]: 0.14 µM | Activity (LN-229): 39% | Activity (U-87 MG): 38%

O=c1c(O)c(-c2ccc(O)c(O)c2)oc2cc(O)cc(O)c12 [QUERCETIN]
Activity [14]: 939 kcal/mol | MIC (Candida albicans [15]): 37.5 µg/mL (≈ 124 µM) | Activity [16]: 8.4% | inhibition [17]: 50% | IC50 [5]: 4 µM | Activity (MCF7 [12]): 70.8% | Activity [18]: 24.7% | Activity (MCF7 [19]): 44.1% | IC50 (J774.A1): 49.1 µM | Ki [20]: 9.34 µM | MIC (Candida albicans [21]): 37.5 µg/mL (≈ 124 µM) | Activity [22]: 15.6% | Activity [23]: 918 kcal/mol | Activity [24]: 80% | MIC (Candida albicans [25]): 37.5 µg/mL (≈ 124 µM) | MIC (Candida albicans [26]): 37.5 µg/mL (≈ 124 µM) | Activity [27]: 694 kcal/mol | inhibition [28]: 50%

Nc1c(-c2ccc(O)c(O)c2)oc2cc(O)cc(O)c2c1=O
Activity [24]: 80%

COc1cc(-c2oc3ccccc3c(=O)c2O)cc(OC)c1OC
IC50 (HCT-116 [29]): 3.3 µM | fold change (FC) (HCT-116 [30]): 1.5 | fold change (FC) (Mus musculus): 3

COc1cc(OC)c2/c(=[S+]/C)c(OC)c(-c3ccc(OC)c(OC)c3)oc2c1.[I-]
Activity [5]: 0.05 mM | IC50 (MDA-MB-231 [31]): 1.84 µM | Activity (MDA-MB-231 [32]): 38.1%

O=c1c(O)c(-c2ccc(O)c(O)c2)oc2c(CN3CCOCC3)c(O)cc(O)c12
inhibition [4]: 100%

COc1ccc(CNCc2c(O)cc(O)c3c(=O)cc(-c4ccc(O)c(O)c4)oc23)cc1
IC50 [10]: 0.25 µg/mL (≈ 0.574 µM) | IC50 [11]: 0.25 µg/mL (≈ 0.574 µM)

COc1cc(OC)c2/c(=N/N)c(OC)c(-c3ccc(OC)c(OC)c3)oc2c1
IC50 [5]: 40 µM

O=c1c(O)c(-c2ccc(O)c(O)c2)oc2c(CN3CCSCC3)c(O)cc(O)c12
inhibition [4]: 57.9%

C[C@@H]1O[C@@H](OC[C@H]2O[C@@H](Oc3c(-c4ccc(O)c(O)c4)oc4c(CN5CCCC5)c(O)c(CN5CCCC5)c(O)c4c3=O)[C@H](O)[C@@H](O)[C@@H]2O)[C@H](O)[C@H](O)[C@H]1O
IC50 (MDA-MB-231 [33]): 7.57 µM

O=c1cc(-c2ccc(O)c(O)c2)oc2cc(O)cc(O)c12 [LUTEOLIN]
MIC (Candida albicans [15]): 37.5 µg/mL (≈ 131 µM) | MIC (Candida albicans [21]): 37.5 µg/mL (≈ 131 µM) | IC50 (MDA-MB-231 [33]): 7.29 µM | MIC (Candida albicans [25]): 37.5 µg/mL (≈ 131 µM) | MIC (Candida albicans [26]): 37.5 µg/mL (≈ 131 µM)

C[C@@H]1O[C@@H](OC[C@H]2O[C@@H](Oc3c(-c4ccc(O)c(O)c4)oc4cc(O)cc(O)c4c3=O)[C@H](O)[C@@H](O)[C@@H]2O)[C@H](O)[C@H](O)[C@H]1O [RUTIN]
MIC (Candida albicans [15]): 37.5 µg/mL (≈ 61.4 µM) | MIC (Candida albicans [21]): 37.5 µg/mL (≈ 61.4 µM) | MIC (Candida albicans [25]): 37.5 µg/mL (≈ 61.4 µM) | MIC (Candida albicans [26]): 37.5 µg/mL (≈ 61.4 µM)

COc1cc(OC)c2c(=O)c(OC)c(-c3ccc(OC)c(OC)c3)oc2c1
IC50 [5]: 620 µM | IC50 (MDA-MB-231 [31]): 2.04 µM | Activity (MDA-MB-231 [32]): 43.7%

O=C(O)CC[C@H](NC(=O)Oc1ccc(-c2oc3cc(O)cc(O)c3c(=O)c2O)cc1O)C(=O)O
RatioGI50 [34]: 17 | GI50 (PC-3): 6 µM | deltaH [35]: 47.2 kcal/mol
